In BindingDB's records for doi:10.1016/j.chembiol.2013.08.005 (University of California San Francisco, 2013) one finds IC50 data, which are given here for 18 compounds.

By IC50 is commonly meant the concentration that gives 50% inhibition.

Where only a bound is given, the exact number is not on record here.

The target of one assay is T1, Urea transporter 2 (Rattus norvegicus, UniProt Q62668).
T1 sequence (Q62668 whole entry): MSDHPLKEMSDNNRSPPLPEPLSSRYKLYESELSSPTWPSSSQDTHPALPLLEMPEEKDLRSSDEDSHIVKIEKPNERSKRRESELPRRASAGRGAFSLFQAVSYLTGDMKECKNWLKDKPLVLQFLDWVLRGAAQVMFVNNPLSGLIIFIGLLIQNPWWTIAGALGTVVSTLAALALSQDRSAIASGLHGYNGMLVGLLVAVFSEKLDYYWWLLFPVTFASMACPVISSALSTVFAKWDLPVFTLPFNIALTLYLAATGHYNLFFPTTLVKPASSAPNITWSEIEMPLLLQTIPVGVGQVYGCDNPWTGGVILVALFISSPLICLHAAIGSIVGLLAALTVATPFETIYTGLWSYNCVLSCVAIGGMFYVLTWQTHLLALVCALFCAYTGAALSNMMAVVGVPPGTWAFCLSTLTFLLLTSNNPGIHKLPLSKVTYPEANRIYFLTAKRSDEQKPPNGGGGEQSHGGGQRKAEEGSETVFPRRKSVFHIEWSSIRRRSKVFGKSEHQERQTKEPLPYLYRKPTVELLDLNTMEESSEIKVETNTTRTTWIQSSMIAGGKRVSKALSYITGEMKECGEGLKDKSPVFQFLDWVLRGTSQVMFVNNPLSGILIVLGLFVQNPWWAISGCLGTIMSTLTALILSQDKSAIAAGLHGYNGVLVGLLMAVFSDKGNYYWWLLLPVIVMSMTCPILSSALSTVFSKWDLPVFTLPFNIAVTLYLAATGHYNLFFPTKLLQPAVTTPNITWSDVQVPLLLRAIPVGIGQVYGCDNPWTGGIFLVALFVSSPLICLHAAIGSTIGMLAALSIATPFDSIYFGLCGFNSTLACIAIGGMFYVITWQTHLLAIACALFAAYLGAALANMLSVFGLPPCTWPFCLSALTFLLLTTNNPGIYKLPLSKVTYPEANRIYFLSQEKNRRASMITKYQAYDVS
Briefly: UT-A1 Inhibition Assay. How it is done:
The urea concentration dependence of UT-A1 inhibition was studied from inhibitor concentration response data (0.3 - 60 µM) using different of urea gradients (200 - 1,600 mM). The kinetics of UT-A1 inhibition was measured by adding inhibitors (3 µM) at different times prior to assay.

The target of another assay is T2, Urea transporter 1 (Rattus norvegicus, UniProt P97689).
T2 sequence (P97689 whole entry): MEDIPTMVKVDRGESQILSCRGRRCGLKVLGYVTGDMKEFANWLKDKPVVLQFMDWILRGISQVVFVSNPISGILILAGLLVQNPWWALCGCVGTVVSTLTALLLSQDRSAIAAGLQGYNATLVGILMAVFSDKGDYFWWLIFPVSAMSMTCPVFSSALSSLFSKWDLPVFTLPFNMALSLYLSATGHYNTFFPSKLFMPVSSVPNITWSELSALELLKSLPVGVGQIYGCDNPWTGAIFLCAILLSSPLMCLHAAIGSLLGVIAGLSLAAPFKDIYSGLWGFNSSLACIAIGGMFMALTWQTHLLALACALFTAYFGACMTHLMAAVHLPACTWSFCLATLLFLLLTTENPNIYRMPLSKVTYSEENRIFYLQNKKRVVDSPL
Briefly: UT-B Inhibition Assay. How it is done:
Erythrocyte suspension (100 µL) was added to each well of a 96-well microplate to which test compounds were added. After 15 min incubation, 20 µL of the erythrocyte suspension was added to each well of a 96-well plate containing 180 µL PBS containing 1% DMSO, followed by vigorous mixing. The absorbance was measured at 710 nm.

As to `CCOc1ccc(Nc2cc(C(=O)N3CCSCC3)nc3c(OC)cccc23)cc1` [N‐(4‐ethoxyphenyl)‐8‐methoxy‐2‐(thiomorpholine‐4‐ carbonyl)quinolin‐4‐amine], the IC50 on Urea transporter 2 is 24 µM; against Urea transporter 1, 34 µM.

On to `CCOc1ccc(Nc2cc(C(=O)N3CCCCC3)nc3c(OC)cccc23)cc1` [N‐(4‐ethoxyphenyl)‐8‐methoxy‐2‐(piperidine‐1‐ carbonyl)quinolin‐4‐amine], for which the IC50 against Urea transporter 2 was determined as 3.3 µM; against Urea transporter 1, 16 µM.

With `COc1cccc2c(Nc3ccc(C)c(F)c3)cc(C(=O)N3CCCCC3)nc12` [N‐(3‐fluoro‐4‐methylphenyl)‐8‐methoxy‐2‐ (piperidine‐1‐carbonyl)quinolin‐4‐amine], the IC50 against Urea transporter 2 is 25 µM; against Urea transporter 1 it was > 50 µM.

`COc1cc(/C=C2/SC(=N)NC2=O)ccc1O` [(5E)‐5‐[(4‐hydroxy‐3‐methoxyphenyl)methylidene]‐2‐ imino‐1,3‐thiazolidin‐4‐one]: the results for the IC50 at Urea transporter 2 and against Urea transporter 1 were 25 µM and 6.2 µM, respectively.

As for `COc1ccc(Nc2cc(C(=O)N3CCSCC3)nc3c(OC)cccc23)cc1Cl` [N‐(3‐chloro‐4‐methoxyphenyl)‐8‐methoxy‐2‐ (thiomorpholine‐4‐carbonyl)quinolin‐4‐amine], the IC50 at Urea transporter 2 is 19 µM; at Urea transporter 1, 27 µM.

Consider `COc1cccc2c(Nc3ccc(C)c(Cl)c3)cc(C(=O)N3CCCCC3)nc12` [N‐(3‐chloro‐4‐methylphenyl)‐8‐methoxy‐2‐ (piperidine‐1‐carbonyl)quinolin‐4‐amine], for which the IC50 is 24 µM at Urea transporter 2 and > 50 µM against Urea transporter 1.

`[H]/N=C1/NC(=O)/C(=C\c2cccc(OC)c2OC)S1` [(5E)‐5‐[(2,3‐dimethoxyphenyl)methylidene]‐2‐imino‐1,3‐thiazolidin‐4‐one]: the IC50 against Urea transporter 2 was found to be 7 µM; against Urea transporter 1, 43 µM.

In the case of `COc1cccc(/C=C2/SC(=N)NC2=O)c1O` [(5E)‐5‐[(2‐hydroxy‐3‐methoxyphenyl)methylidene]‐2‐ imino‐1,3‐thiazolidin‐4‐one], the 50% inhibitory concentration (IC50) against Urea transporter 2 stood at 4.6 µM; against Urea transporter 1, 6.3 µM.

With `COc1cccc(Nc2nc(Nc3ccc(C)cc3)nc(Sc3ccc(C)cc3)n2)c1` [2‐N‐(3‐methoxyphenyl)‐4‐N‐(4‐methylphenyl)‐6‐[(4‐ methylphenyl)sulfanyl]‐1,3,5‐triazine‐2,4‐diamine], the half-maximal inhibitory concentration (IC50) was > 50 µM at Urea transporter 2 and 42 µM on Urea transporter 1.

Regarding `CC(=O)OCCOc1ccccc1/C=C1/SC(=N)NC1=O` [2‐(2‐{[(5E)‐2‐imino‐4‐oxo‐1,3‐thiazolidin‐5‐ ylidene]methyl}phenoxy)ethyl acetate], the figures for the IC50 against Urea transporter 2 and on Urea transporter 1 were 3.7 µM and 4.8 µM, respectively.

Regarding `O=S(=O)(c1ccc(Br)cc1)c1nnn2c1nc(N=S1C=CC=C1)c1sccc12` [10‐(4‐bromobenzenesulfonyl)‐N‐[(1Z)‐1λ⁴‐thiophen‐1‐ ylidene]‐5‐thia‐1,8,11,12‐ tetraazatricyclo[7.3.0.0 ,⁶]dodeca‐2(6),3,7,9,11‐ pentaen‐7‐amine], the IC50 was > 50 µM against Urea transporter 2 and 2.8 µM against Urea transporter 1.

In the case of `Cc1ccc(C)c(S(=O)(=O)c2nnn3c2nc(NC(C)C)c2sccc23)c1`, the IC50 against Urea transporter 2 was found to be 3.8 µM; at Urea transporter 1, 15 µM.

Turning to `CNc1nc2c(S(=O)(=O)c3ccccc3)nnn2c2ccsc12` [UT-A1 inhibitor D2], the IC50 was > 50 µM at Urea transporter 2 and 35 µM on Urea transporter 1.

In the case of `CCc1ccc(S(=O)(=O)c2nnn3c2nc(NCCCOC)c2sccc23)cc1`, the figures for the IC50 on Urea transporter 2 and on Urea transporter 1 were > 50 µM and 28 µM, respectively.

As for `COc1cccc2c(Nc3cccc(SC)c3)cc(C(=O)N3CCCCC3)nc12` [8‐methoxy‐N‐[3‐(methylsulfanyl)phenyl]‐2‐ (piperidine‐1‐carbonyl)quinolin‐4‐amine], the IC50 at Urea transporter 2 amounted to 3.8 µM; against Urea transporter 1, 20 µM.

In the case of `COc1ccc(Nc2cc(C(=O)N3CCSCC3)nc3c(OC)cccc23)cc1` [8‐methoxy‐N‐(4‐methoxyphenyl)‐2‐(thiomorpholine‐4‐ carbonyl)quinolin‐4‐amine], the 50% inhibitory concentration (IC50) against Urea transporter 2 is 3.5 µM; on Urea transporter 1, 6.2 µM.

As for `CSc1nc(Nc2ccc(Nc3ccccc3)cc2)nc(SC)n1` [1‐N‐[bis(methylsulfanyl)‐1,3,5‐triazin‐2‐yl]‐4‐N‐ phenylbenzene‐1,4‐diamine], the IC50 was 45 µM against Urea transporter 2 and > 50 µM against Urea transporter 1.

As to `COc1cccc(CNC(=O)c2ccc3cccc(O)c3n2)c1` [8‐hydroxy‐N‐[(3‐methoxyphenyl)methyl]quinoline‐2‐carboxamide], at Urea transporter 1, the IC50 is > 50 µM.
